Results published in ChEMBL document CHEMBL1949573, “Isoform-selective thiazolo[5,4-b]pyridine S1P1 agonists possessing acyclic amino carboxylate head-groups” (Bioorg Med Chem Lett, 2012).
pEC50: −log10 of the molar value. Values after ≈ are worked out from the molar mass of the structure shown. Active and inactive are the calls of the source. No cut-off for these calls is given here.

Tests used:
Rattus norvegicus [1] = assay: Immunomodulatory activity in Lewis rat assessed as peripheral lymphocyte reduction at 1 mg/kg, po after 24 hrs; format: functional; parameters: scale not given: the % may be the effect or the level left
Plasma [2] = assay: Plasma concentration in Lewis rat at 1 mg/kg, po; format: ADME, organism-based; parameters: dose 1 mg/kg, route oral; settings: in vivo
[3] = target: T1, Sphingosine 1-phosphate receptor 1 (Homo sapiens, UniProt P21453); assay: Agonist activity at eGFP-tagged human S1P1 receptor expressed in U2OS cells assessed as receptor internalization after 1 hr by Hoechst dye-based microscopic analysis; format: functional, cell-based
[4] = target: T1, Sphingosine 1-phosphate receptor 1; assay: Agonist activity at eGFP-tagged human S1P1 receptor expressed in U2OS cells assessed as receptor internalization after 1 hr by Hoechst dye-based microscopic analysis relative to 1 uM 1-(4-(6-benzylbenzofuran-2-yl)-3-fluorobenzyl)azetidine-3-carboxylic acid; format: functional, cell-based
[5] = target: T2, Sphingosine 1-phosphate receptor 3 (Homo sapiens, UniProt Q99500); assay: Agonist activity at human S1P3 receptor expressed in CHO cells coexpressing chimeric Gq/i5 G-protein assessed as Ca2+ release by FLIPR assay; format: functional, cell-based
[6] = target: T2, Sphingosine 1-phosphate receptor 3; assay: Agonist activity at human S1P3 receptor expressed in CHO cells coexpressing chimeric Gq/i5 G-protein assessed as Ca2+ release by FLIPR assay relative to 0.2 uM S1P; format: functional, cell-based
Rattus norvegicus [7] = assay: Immunomodulatory activity in Lewis rat assessed as peripheral lymphocyte reduction at 0.1 mg/kg, po after 24 hrs relative to control; format: functional
Rattus norvegicus [8] = assay: Immunomodulatory activity in Lewis rat assessed as peripheral lymphocyte reduction at 0.3 mg/kg, po after 24 hrs relative to control; format: functional; parameters: scale not given: the % may be the effect or the level left
[9] = Clearance in Sprague-Dawley rat at 1 mg/kg, iv and 3 mg/kg, po; format: ADME, organism-based; settings: in vivo
[10] = Volume of distribution at steady state in Sprague-Dawley rat at 1 mg/kg, iv and 3 mg/kg, po; format: ADME, organism-based; settings: in vivo, read-out: Vdss
[11] = Mean residence time in Sprague-Dawley rat at 1 mg/kg, iv and 3 mg/kg, po; format: ADME, organism-based; settings: in vivo
[12] = Oral bioavailability in Sprague-Dawley rat at 3 mg/kg; format: ADME, organism-based; settings: in vivo
rat MDR1 [13] = assay: Permeability from apical to basolateral side in pig LLC-PK1 cells expressing rat MDR1; format: ADME, cell-based, Sus scrofa; settings: read-out: permeability
[14] = Solubility of the compound in 0.01 N HCl; format: physicochemical; settings: buffer
[15] = Solubility of the compound in phosphate buffer saline; format: physicochemical
[16] = Solubility of the compound in simulated intestinal fluid; format: physicochemical; settings: simulated gi fluid
rat MDR1 [17] = assay: Efflux ratio of permeability across pig LLC-PK1 cells expressing rat MDR1; format: ADME, cell-based, Sus scrofa
[18] = Fraction unbound in rat plasma; format: ADME, cell-free
[19] = Fraction unbound in human plasma; format: ADME, cell-free
Cytochrome P450 3A4 [20] = target: T3, Cytochrome P450 3A4 (Homo sapiens, UniProt P08684); assay: Induction of CYP3A4; format: ADME
Cytochrome P450 3A4 [21] = target: T3, Cytochrome P450 3A4; assay: Inhibition of CYP3A4; format: ADME
Cytochrome P450 2D6 [22] = target: T4, Cytochrome P450 2D6 (Homo sapiens, UniProt P10635); assay: Induction of CYP2D6; format: ADME
Cytochrome P450 2D6 [23] = target: T4, Cytochrome P450 2D6; assay: Inhibition of CYP2D6; format: ADME
[24] = target: T5, Voltage-gated inwardly rectifying potassium channel KCNH2 (Homo sapiens, UniProt Q12809); assay: Binding affinity to human Erg
[25] = target: T5, Voltage-gated inwardly rectifying potassium channel KCNH2; assay: Inhibition of human Erg by electrophysiology assay
Rattus norvegicus [26] = assay: Immunomodulatory activity in Lewis rat assessed as peripheral lymphocyte reduction at 1 mg/kg, po after 24 hrs relative to control; format: functional; parameters: scale not given: the % may be the effect or the level left
Plasma [27] = assay: Plasma concentration in Lewis rat at 0.1 mg/kg, po; format: ADME, organism-based; parameters: dose 0.1 mg/kg, route oral; settings: in vivo

T2 sequence (Q99500 whole entry): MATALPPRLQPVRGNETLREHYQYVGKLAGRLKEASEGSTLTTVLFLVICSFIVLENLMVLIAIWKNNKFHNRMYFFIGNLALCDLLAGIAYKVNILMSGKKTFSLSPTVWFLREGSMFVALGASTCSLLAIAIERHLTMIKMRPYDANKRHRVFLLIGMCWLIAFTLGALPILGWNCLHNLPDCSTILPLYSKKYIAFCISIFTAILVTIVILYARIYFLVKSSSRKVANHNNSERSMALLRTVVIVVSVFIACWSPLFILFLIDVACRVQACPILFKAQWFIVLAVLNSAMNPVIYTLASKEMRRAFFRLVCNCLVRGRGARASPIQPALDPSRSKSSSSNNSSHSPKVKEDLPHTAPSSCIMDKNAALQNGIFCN
T1 sequence (P21453 whole entry): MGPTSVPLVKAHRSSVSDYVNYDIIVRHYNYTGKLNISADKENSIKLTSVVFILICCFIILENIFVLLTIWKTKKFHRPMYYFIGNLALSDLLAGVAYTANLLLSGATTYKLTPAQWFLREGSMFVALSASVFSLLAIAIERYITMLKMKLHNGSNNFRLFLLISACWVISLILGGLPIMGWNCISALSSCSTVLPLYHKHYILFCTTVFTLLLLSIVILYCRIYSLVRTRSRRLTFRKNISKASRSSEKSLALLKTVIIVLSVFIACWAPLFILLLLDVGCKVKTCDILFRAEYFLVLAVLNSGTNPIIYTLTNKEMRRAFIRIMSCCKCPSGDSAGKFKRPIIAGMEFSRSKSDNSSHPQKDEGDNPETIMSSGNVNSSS
T3 sequence (P08684 whole entry): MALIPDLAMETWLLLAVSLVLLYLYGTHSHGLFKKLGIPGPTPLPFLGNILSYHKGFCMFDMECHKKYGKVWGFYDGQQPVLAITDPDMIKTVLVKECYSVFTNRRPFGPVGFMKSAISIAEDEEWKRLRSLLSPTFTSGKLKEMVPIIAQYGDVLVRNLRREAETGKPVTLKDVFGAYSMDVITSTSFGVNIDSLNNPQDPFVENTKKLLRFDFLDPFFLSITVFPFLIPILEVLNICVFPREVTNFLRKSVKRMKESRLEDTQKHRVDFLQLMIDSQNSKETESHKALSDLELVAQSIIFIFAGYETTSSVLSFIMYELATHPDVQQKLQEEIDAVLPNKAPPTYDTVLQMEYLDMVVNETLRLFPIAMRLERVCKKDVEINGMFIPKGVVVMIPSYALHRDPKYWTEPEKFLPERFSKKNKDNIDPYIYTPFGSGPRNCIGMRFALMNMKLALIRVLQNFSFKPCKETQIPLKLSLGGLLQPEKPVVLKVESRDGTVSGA
T4 sequence (P10635 whole entry): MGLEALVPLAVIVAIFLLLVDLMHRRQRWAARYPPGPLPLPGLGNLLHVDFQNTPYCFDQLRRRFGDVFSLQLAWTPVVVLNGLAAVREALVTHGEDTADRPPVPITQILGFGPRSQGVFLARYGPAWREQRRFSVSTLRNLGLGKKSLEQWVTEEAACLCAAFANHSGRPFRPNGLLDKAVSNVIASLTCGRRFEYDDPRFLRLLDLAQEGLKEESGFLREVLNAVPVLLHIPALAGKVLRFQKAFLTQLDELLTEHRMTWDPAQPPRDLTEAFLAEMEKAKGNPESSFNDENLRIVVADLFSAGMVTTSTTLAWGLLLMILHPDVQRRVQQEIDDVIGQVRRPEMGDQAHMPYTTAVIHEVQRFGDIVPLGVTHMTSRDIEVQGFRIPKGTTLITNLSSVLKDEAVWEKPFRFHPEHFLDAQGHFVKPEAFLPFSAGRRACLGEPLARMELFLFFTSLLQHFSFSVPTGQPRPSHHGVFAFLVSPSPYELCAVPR
T5 sequence (Q12809 whole entry): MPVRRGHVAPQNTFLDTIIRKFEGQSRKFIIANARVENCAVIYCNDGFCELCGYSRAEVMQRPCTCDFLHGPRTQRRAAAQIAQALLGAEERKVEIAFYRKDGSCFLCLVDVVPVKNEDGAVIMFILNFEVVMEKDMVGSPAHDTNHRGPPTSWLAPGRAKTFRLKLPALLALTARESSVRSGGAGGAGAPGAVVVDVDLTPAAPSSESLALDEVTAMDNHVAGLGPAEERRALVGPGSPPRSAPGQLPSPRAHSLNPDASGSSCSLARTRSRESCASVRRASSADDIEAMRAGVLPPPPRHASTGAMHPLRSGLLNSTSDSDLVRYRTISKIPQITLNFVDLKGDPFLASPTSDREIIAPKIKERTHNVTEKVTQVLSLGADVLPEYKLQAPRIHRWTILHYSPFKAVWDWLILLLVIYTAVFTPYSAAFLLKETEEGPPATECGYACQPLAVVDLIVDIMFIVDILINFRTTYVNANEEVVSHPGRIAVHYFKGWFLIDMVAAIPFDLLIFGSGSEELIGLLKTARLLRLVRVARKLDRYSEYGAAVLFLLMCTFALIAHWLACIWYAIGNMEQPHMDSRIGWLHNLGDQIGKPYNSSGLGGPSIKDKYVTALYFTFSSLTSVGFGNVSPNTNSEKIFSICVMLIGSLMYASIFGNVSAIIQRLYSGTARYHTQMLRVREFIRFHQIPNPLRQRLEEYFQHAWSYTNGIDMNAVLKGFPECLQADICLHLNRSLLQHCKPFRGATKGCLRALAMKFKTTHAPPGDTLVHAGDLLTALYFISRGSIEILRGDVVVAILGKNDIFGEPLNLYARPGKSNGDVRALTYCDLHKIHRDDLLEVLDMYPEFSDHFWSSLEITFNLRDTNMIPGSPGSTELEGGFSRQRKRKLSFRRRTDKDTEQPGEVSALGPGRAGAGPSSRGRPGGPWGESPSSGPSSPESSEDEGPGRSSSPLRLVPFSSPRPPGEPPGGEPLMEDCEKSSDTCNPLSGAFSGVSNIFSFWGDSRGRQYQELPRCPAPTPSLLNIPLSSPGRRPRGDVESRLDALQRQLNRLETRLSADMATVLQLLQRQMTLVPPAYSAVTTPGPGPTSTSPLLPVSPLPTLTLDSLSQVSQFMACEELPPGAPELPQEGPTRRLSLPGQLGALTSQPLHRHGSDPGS

| SMILES | Activity (Rattus norvegicus [1]) | Cp (Plasma [2]) | pEC50 [3] | Efficacy [4] | pEC50 [5] | also measured |
| --- | --- | --- | --- | --- | --- | --- |
| N[C@@H](CC(=O)Nc1ccc(-c2nc3ccc(C4(c5ccccc5)CC4)nc3s2)c(F)c1)C(=O)O | 4% | 8 ng/mL | 8.70 | 102% | < 5.60 |  |
| N[C@H](CCc1ccc(-c2nc3ccc(C4(c5ccccc5)CC4)nc3s2)c(F)c1)C(=O)O | 55% | 5 ng/mL | 9.52 | 128% | < 5.60 |  |
| O=C(O)CCc1ccc(-c2nc3ccc(C4(c5ccccc5)CC4)nc3s2)c(F)c1 |  |  |  | 81% | < 4.60 |  |
| N[C@@H](CC(=O)O)C(=O)Nc1ccc(-c2nc3ccc(C4(c5ccccc5)CC4)nc3s2)c(F)c1 | 0% | 1 ng/mL | 9.30 | 134% | 5.95 | Efficacy [6]: 35% |
| Fc1ccccc1-c1nc2ccc(C3(c4ccccc4)CC3)nc2s1 |  |  | 7.35 | 98% | < 4.60 |  |
| O=C(O)CCC(=O)Nc1ccc(-c2nc3ccc(C4(c5ccccc5)CC4)nc3s2)c(F)c1 |  |  | 7.72 | 80% | 5.25 | Efficacy [6]: 39% |
| O=C(O)CCCc1ccc(-c2nc3ccc(C4(c5ccccc5)CC4)nc3s2)c(F)c1 |  |  | 7.21 | 100% | < 4.60 |  |
| N[C@@H](CCc1ccc(-c2nc3ccc(C4(c5ccccc5)CC4)nc3s2)c(F)c1)C(=O)O | 22% | 2 ng/mL | 9.30 | 115% | < 5.60 |  |
| O=C(O)CCNc1ccc(-c2nc3ccc(C4(c5ccccc5)CC4)nc3s2)c(F)c1 |  |  | 7.38 | 94% | < 5.60 |  |
| O=C(O)CCCCc1ccc(-c2nc3ccc(C4(c5ccccc5)CC4)nc3s2)c(F)c1 |  |  | 5.62 | 103% | < 4.60 |  |
| NCCc1ccc(-c2nc3ccc(C4(c5ccccc5)CC4)nc3s2)c(F)c1 |  |  | 6.32 | 155% | < 4.60 |  |
| C[C@](N)(CCc1ccc(-c2nc3ccc(C4(c5ccccc5)CC4)nc3s2)c(F)c1)C(=O)O | 15% | 6 ng/mL | 8.52 | 93% | < 5.60 |  |
| CN(CCC(=O)O)Cc1ccc(-c2nc3ccc(C4(c5ccccc5)CC4)nc3s2)c(F)c1 |  |  | 6.71 | 153% | < 4.60 |  |
| C[C@@](N)(CCc1ccc(-c2nc3ccc(C4(c5ccccc5)CC4)nc3s2)c(F)c1)C(=O)O | 71% | 10 ng/mL | 9.70 | 114% | < 5.60 | Activity (Rattus norvegicus [7]): inactive; Activity (Rattus norvegicus [8]): 29%; clearance [9]: 6 mL/min/kg; Vd [10]: 4.1 L/kg; MRT [11]: 11.4 h; bioavailability [12]: 16%; Papp A→B (rat MDR1 [13]): 4 ×10⁻⁶ cm/s; solubility [14]: 6 ng/mL (≈ 0.013 µM); solubility [15]: < 1 ng/mL; solubility [16]: 108 ng/mL (≈ 0.234 µM); efflux ratio (rat MDR1 [17]): 1.8; fraction unbound [18]: 0.039; fraction unbound [19]: 0.037; Activity (Cytochrome P450 3A4 [20]): Not Active; inhibition (INH) (Cytochrome P450 3A4 [21]): Not Active; Activity (Cytochrome P450 2D6 [22]): Not Active; inhibition (INH) (Cytochrome P450 2D6 [23]): Not Active; Activity [24]: > 30 µM; INH [25]: > 10 µM; Activity (Rattus norvegicus [26]): 56% |
| O=C(O)c1ccc(-c2nc3ccc(C4(c5ccccc5)CC4)nc3s2)c(F)c1 |  |  | 5.55 | 105% | < 4.60 |  |
| NCCCc1ccc(-c2nc3ccc(C4(c5ccccc5)CC4)nc3s2)c(F)c1 |  |  | 8.10 | 121% | < 5.60 |  |
| N[C@H](CC(=O)Nc1ccc(-c2nc3ccc(C4(c5ccccc5)CC4)nc3s2)c(F)c1)C(=O)O | 0% | 4 ng/mL | 8.70 | 110% | < 5.60 |  |
| N[C@H](CC(=O)O)C(=O)Nc1ccc(-c2nc3ccc(C4(c5ccccc5)CC4)nc3s2)c(F)c1 | 0% | 2 ng/mL |  | 100% | 6.08 | Efficacy [6]: 31% |
| O=C(O)C1CN(Cc2ccc(-c3nc4ccc(C5(c6ccccc6)CC5)nc4s3)c(F)c2)C1 | 71% | 116 ng/mL |  |  |  | Efficacy [6]: 26%; Activity (Rattus norvegicus [7]): 65%; Papp A→B (rat MDR1 [13]): 14.6 ×10⁻⁶ cm/s; solubility [14]: 3 ng/mL (≈ 0.00653 µM); solubility [15]: 7 ng/mL (≈ 0.0152 µM); solubility [16]: 65 ng/mL (≈ 0.141 µM); Cp (Plasma [27]): 10 ng/mL |
| O=C(O)CNCc1ccc(-c2nc3ccc(C4(c5ccccc5)CC4)nc3s2)c(F)c1 | 37% | 7 ng/mL | 8.52 | 103% | 5.81 | Efficacy [6]: 17% |
| O=C(O)CNCCc1ccc(-c2nc3ccc(C4(c5ccccc5)CC4)nc3s2)c(F)c1 | 15% | 1 ng/mL | 8.70 | 102% | 5.84 | Efficacy [6]: 11% |
| O=C(O)CCCNc1ccc(-c2nc3ccc(C4(c5ccccc5)CC4)nc3s2)c(F)c1 |  |  | 7.44 | 113% | 5.15 | Efficacy [6]: 18% |
| O=C(O)CCCNCc1ccc(-c2nc3ccc(C4(c5ccccc5)CC4)nc3s2)c(F)c1 |  |  | 6.75 | 128% | < 5.60 |  |
| O=C(O)CCNCc1ccc(-c2nc3ccc(C4(c5ccccc5)CC4)nc3s2)c(F)c1 | 27% | 12 ng/mL | 8.52 | 96% | < 4.60 |  |
| Nc1ccc(-c2nc3ccc(C4(c5ccccc5)CC4)nc3s2)c(F)c1 |  |  | 6.91 | 92% | < 4.60 |  |
| NCc1ccc(-c2nc3ccc(C4(c5ccccc5)CC4)nc3s2)c(F)c1 |  |  | 7.82 | 113% | < 5.60 |  |
